Bounds are passed on as bounds.

The test addresses recombinant human LRRK2 (catalytic domain only [amino acids 970-2527], GST-tagged) (Homo sapiens (Human), UniProt Q5S007). The experiment in a line: LRRK2 Enzymatic Assay. The class given is biochemical. Particulars: LRRKtide substrate, [32P]-ATP. The essentials: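 Radiometric P81 filter-binding read-out of [32P]-ATP transfer to LRRKtide (20 μM) by 30 nM GST-LRRK2 970-2527, 2 h at room temperature after 20 min compound preincubation (10 μM–0.5 nM, 1% DMSO). IC50 derived from % remaining activity versus DMSO.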

Sequence of recombinant human LRRK2 (catalytic domain only [amino acids 970-2527], GST-tagged) (Q5S007 970-2527): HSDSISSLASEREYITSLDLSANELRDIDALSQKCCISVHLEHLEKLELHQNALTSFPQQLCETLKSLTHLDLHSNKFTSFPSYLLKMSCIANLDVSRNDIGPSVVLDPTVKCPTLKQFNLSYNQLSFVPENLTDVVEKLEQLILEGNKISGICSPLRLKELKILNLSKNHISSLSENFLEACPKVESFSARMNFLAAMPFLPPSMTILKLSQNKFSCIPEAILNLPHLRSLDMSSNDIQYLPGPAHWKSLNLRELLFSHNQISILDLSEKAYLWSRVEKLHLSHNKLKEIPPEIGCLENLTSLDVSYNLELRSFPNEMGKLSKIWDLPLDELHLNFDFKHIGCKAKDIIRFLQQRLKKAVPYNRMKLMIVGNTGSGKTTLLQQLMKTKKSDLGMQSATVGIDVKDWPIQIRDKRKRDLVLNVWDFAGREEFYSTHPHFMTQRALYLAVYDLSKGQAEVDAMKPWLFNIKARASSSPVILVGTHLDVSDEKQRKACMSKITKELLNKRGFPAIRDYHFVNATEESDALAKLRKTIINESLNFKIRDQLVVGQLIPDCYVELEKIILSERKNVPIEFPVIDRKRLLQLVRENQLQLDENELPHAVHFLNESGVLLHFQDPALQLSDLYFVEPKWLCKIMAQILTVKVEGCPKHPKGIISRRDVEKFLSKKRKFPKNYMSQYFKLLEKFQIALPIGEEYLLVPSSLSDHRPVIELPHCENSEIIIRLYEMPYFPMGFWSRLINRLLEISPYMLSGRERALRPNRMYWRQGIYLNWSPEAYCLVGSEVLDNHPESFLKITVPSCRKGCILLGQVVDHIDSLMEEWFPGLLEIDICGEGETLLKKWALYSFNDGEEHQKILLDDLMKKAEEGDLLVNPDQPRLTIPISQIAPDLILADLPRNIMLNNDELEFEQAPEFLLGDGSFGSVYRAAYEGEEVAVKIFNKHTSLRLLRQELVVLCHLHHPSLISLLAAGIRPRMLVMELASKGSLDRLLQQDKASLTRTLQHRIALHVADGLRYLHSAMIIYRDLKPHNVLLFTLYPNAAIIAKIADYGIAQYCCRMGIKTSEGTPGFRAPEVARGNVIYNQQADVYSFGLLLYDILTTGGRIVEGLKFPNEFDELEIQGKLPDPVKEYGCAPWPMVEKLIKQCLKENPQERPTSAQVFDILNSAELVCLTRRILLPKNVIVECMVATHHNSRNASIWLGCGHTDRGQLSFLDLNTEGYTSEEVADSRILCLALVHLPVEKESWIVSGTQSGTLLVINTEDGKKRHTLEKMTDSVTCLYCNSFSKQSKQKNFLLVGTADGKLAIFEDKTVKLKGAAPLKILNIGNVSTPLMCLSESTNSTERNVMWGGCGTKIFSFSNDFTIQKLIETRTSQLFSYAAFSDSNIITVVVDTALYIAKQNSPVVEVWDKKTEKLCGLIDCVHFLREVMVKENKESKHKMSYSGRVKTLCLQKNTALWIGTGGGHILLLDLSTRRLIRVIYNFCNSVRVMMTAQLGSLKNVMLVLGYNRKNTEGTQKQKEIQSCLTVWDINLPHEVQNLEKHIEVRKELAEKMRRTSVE

As to `N[C@H]1CC[C@@H](COc2nc(Nc3ccc(N4CCOCC4)cc3)ncc2Cl)C1` [Example 16, 4-(((1R,3S)-3-aminocyclopentyl)methoxy)-5-chloro-N-(4-morpholinophenyl) pyrimidin-2-amine], the IC50 (as a rule, the concentration needed to halve the response being measured) was below 50 nM.

Turning to `CC(=O)N[C@H]1CC[C@H](COc2nc(Nc3cnn(C(C)(C)C#N)c3)ncc2F)CC1` [Example 186, N-((1R,4R)-4-(((2-((1-(2-cyanopropan-2-yl)-1H-pyrazol-4-yl)amino)-5-fluoropyrimidin-4-yl)oxy)methyl)cyclo-hexyl)acetamide], the IC50 is below 50 nM.

For `Cc1c(Nc2ncc(Cl)c(OCC3CCN(C)CC3)n2)cnn1C1CC(C#N)C1` (stereo not shown) [Example 58, 3-(4-((5-chloro-4-((1-methylpiperidin-4-yl)methoxy)pyrimidin-2-yl)amino)-5-methyl-1H-pyrazol-1-yl)cyclobutane-1-carbonitrile], the IC50 is below 50 nM.

Consider `CC(=O)N[C@H]1CC[C@H](COc2nc(Nc3cn(C(C)(C)C#N)nc3C)ncc2C)CC1` [Example 87, N-((1R,4R)-4-(((2-((1-(2-cyanopropan-2-yl)-3-methyl-1H-pyrazol-4-yl)amino)-5-methylpyrimidin-4-yl)oxy)methyl)cyclo-hexyl)acetamide], for which the IC50 is below 50 nM.

As for `Cc1nn(C(C)(C)C#N)cc1Nc1ncc(F)c(OCC2CCC(F)(F)CC2)n1` [Example 270, 2-(4-((4-((4,4-difluorocyclohexyl)methoxy)-5-fluoropyrimidin-2-yl)amino)-3-methyl-1H-pyrazol-1-yl)-2-methylpropanenitrile], the IC50 was in the range of 50 to 200 nM.

In the case of `CC(=O)NC12CCC(COc3ccnc(Nc4ccc(N5CCOCC5)cc4)n3)(CC1)CC2` [Example 77, N-(4-(((2-((4-morpholinophenyl)amino)pyrimidin-4-yl)oxy)methyl)bicyclo [2.2.2]octan-1-yl)acetamide], the IC50 is above 400 nM.

For the compound `CC(=O)N1CCC(COc2nc(Nc3ccc(N4C[C@@H](C)O[C@@H](C)C4)cc3)ncc2F)C(F)C1` (single isomer, unassigned) [Example 174], the IC50 was in the range of 200 to 400 nM.

With `Fc1cnc(Nc2ccc(N3C4CCC3COC4)cc2)nc1OCC1CCNCC1(F)F` (stereo not shown) [Example 163, N-(4-(3-oxa-8-azabicyclo[3.2.1]octan-8-yl)phenyl)-4-((3,3-difluoropiperidin-4-yl)methoxy)-5-fluoropyrimidin-2-amine], the IC50 was 50 to 200 nM.

As for `Cc1nn(C(C)(C)C#N)cc1Nc1ncc(Cl)c(OCC2CN(C)C2)n1` [Example 68, 2-(4-((5-chloro-4-((1-methylazetidin-3-yl)methoxy)pyrimidin-2-yl)amino)-3-methyl-1H-pyrazol-1-yl)-2-methylpropanenitrile], the IC50 was above 400 nM.

As for `N[C@H]1CC[C@@H](COc2ccnc(Nc3ccc(N4CCOCC4)cc3)n2)CC1` [Example 1, 4-(((1S,4S)-4-aminocyclohexyl)methoxy)-N-(4-morpholinophenyl) pyrimidin-2-amine], the IC50 was below 50 nM.

Take `C[C@@H]1CN(c2ccc(Nc3ncc(F)c(OCC4CCC(OC(F)(F)F)CC4)n3)cc2)C[C@H](C)O1` (stereo partly drawn) [Example 283, N-(4-((2S,6R)-2,6-dimethylmorpholino)phenyl)-5-fluoro-4-((4-(trifluoromethoxy)cyclohexyl)methoxy)pyrimidin-2-amine]: the IC50 was above 400 nM.

Take `Cc1nn(C(C)(C)C#N)cc1Nc1ncc(Cl)c(OCC2CC3(CNC3)C2)n1` [Example 28, 2-(4-((4-((2-azaspiro[3.3]heptan-6-yl)methoxy)-5-chloropyrimidin-2-yl)amino)-3-methyl-1H-pyrazol-1-yl)-2-methylpropanenitrile]: the half-inhibitory concentration (IC50) is below 50 nM.

Consider `O[C@H]1CC[C@H](COc2nc(Nc3cnn(C(F)(F)F)c3)ncc2F)CC1` [Example 222, (1R,4R)-4-(((5-fluoro-2-((1-(trifluoromethyl)-1H-pyrazol-4-yl)amino)pyrimidin-4-yl)oxy)methyl)cyclohexan-1-ol], for which the IC50 was above 400 nM.

(Values after patent US11578061B2, “Inhibitors of LRRK2 kinase” (Halia Therapeutics, Inc., priority 2021, dated 2023).)
